In test [1] the test system is Anti-Factor Xa Activity of the Non-Heparin Glycosaminoglycan Orgaran ®. The test can be described thus: Anti-Factor Xa assay: neutralization of Orgaran in citrate or plasma in vitro. It counts as biochemical, human. As for the experimental part: The ability of peptides such as (ARKKAAKA)3VLVLVLVL (SEQ ID NO:5) to neutralize the anti-Factor Xa activity of UFH and LMWH in vitro was tested using the Stachrom Heparin kit (Diagnostica Stago), a standard hematology laboratory assay used to measure the anti-Factor Xa activity of heparin. The assay was performed using the low molecular weight heparin enoxaparin sodium (Lovenox®, Aventis Pharmaceuticals, Inc.), unfractionated heparin (UFH), or the non-heparin glycosaminoglycan danaparoid sodium (Orgaran®, Organon Inc., West Orange, N.J.) in 0.32% citrate or in plasma anticoagulated with 0.32% citrate. Enoxaparin is commonly used clinically as a low molecular weight heparin (LMWH). Danaparoid is commonly used clinically as a non-heparin glycosaminoglycan anticoagulant. Currently, the only FDA approved drug to target UFH is protamine, which is not effective in vivo against LMWH or a non-heparin glycosaminoglycan such as danaparoid. Buffer and ATIII are added to form the heparin/ATIII complex, peptide is added, then Factor Xa, reporter dye substrate for Factor Xa activity, and stop solution, and the dye concentration is read at 405 nm. The absorbance of the dye increases with increasing Factor Xa activity, and thus is inversely proportional to the heparin (anti-Factor Xa activity) concentration. Peptides were tested in plasma obtained from three volunteers (A, B, and C). Platelet function inhibitors PG12 and theophylline were added to the blood immediately upon collection. […]

Test [2] has as its system anti-Factor Xa activity of Lovenox®. Put plainly: In vivo neutralization of the LMWH Lovenox in rats (anti-Factor Xa assay of plasma). As for the experimental part: Experiments were performed to test the ability of heparin-binding peptides of the invention to neutralize low molecular weight heparins which are used clinically, such as Lovenox®. To this end, rats were cannulated in the jugular and femoral veins. Lovenox® was injected through the jugular vein, and three minutes later the peptide was injected via the jugular vein. The peptides tested included (ARKKAAKA)4 (SEQ ID NO:31), C(ARKKAAKA)4C (SEQ ID NO:34), (ARKKAAKA)3ARKKCAKA (SEQ ID NO:33), and (ARKKAAKA)3VLVLVLVL (SEQ ID NO:5). Blood was collected from the femoral vein. 0.1 ml was collected at each time point. Plasma was prepared from each tube, and the anti-Factor Xa assay was performed.
Results. The dose response of each peptide from 2 mg/300 gm to 0.5 mg/300 gm was tested and a representative dose (1.0 mg) is shown in FIG. 4. […] The absorbance is inversely proportional to the heparin concentration. There is no heparin present when A405=0.7, and about 1 U/ml when A405=0.4. The events at the arrows are indicated in the box insert.

Bridge positions count the residues as written; N and C are the ends. Ends that are not written are not given here. Peptide text beside a SMILES is read from it.

Turning to `C[C@@H]1NC(=O)[C@H](C)NC(=O)[C@H](CCCCN)NC(=O)[C@H](CCCCN)NC(=O)[C@H](CCCNC(=N)N)NC(=O)[C@H](C)NC(=O)[C@H](C)NC(=O)[C@H](CCCCN)NC(=O)[C@H](C)NC(=O)[C@H](C)NC(=O)[C@H](CCCCN)NC(=O)[C@H](CCCCN)NC(=O)[C@H](CCCNC(=N)N)NC(=O)[C@H](C)NC(=O)[C@@H](N)CSSC[C@@H](C(=O)O)NC(=O)[C@H](C)NC(=O)[C@H](CCCCN)NC(=O)[C@H](C)NC(=O)[C@H](C)NC(=O)[C@H](CCCCN)NC(=O)[C@H](CCCCN)NC(=O)[C@H](CCCNC(=N)N)NC(=O)[C@H](C)NC(=O)[C@H](C)NC(=O)[C@H](CCCCN)NC(=O)[C@H](C)NC(=O)[C@H](C)NC(=O)[C@H](CCCCN)NC(=O)[C@H](CCCCN)NC(=O)[C@H](CCCNC(=N)N)NC(=O)[C@H](C)NC(=O)[C@H](C)NC(=O)[C@H](CCCCN)NC1=O` [C(ARKKAAKA)4C, cyclized C(ARKKAAKA)4C] (H-CARKKAAKAARKKAAKAARKKAAKAARKKAAKAC-OH; disulfide 1-34), the “Orgaran Neutralized” value worked out at 0.016 ± 0.012 U/ml in test [1] (1 μg/ml Peptide, A Plasma); 0.038 ± 0.036 U/ml in test [1] (1 μg/ml Peptide, B Plasma); 0.008 ± 0.005 U/ml in test [1] (1 μg/ml Peptide, C Plasma); 0.072 ± 0.052 U/ml in test [1] (1 μg/ml Peptide, Citrate); 0.074 ± 0.049 U/ml in test [1] (6 μg/ml Peptide, A Plasma); 0.027 ± 0.016 U/ml in test [1] (6 μg/ml Peptide, B Plasma). Further, the “Orgaran Neutralized” value in test [1] (6 μg/ml Peptide, C Plasma) turned out to be 0.030 ± 0.009 U/ml; in test [1] (6 μg/ml Peptide, Citrate) it was 0.099 ± 0.062 U/ml; in test [1] (12 μg/ml Peptide, A Plasma), 0.050 ± 0.031 U/ml; in test [1] (12 μg/ml Peptide, B Plasma) it was 0.082 ± 0.029 U/ml; in test [1] (12 μg/ml Peptide, C Plasma) it was 0.063 ± 0.025 U/ml; in test [1] (12 μg/ml Peptide, Citrate), 0.180 ± 0.023 U/ml. The “Orgaran Neutralized” value in test [1] (60 μg/ml Peptide, A Plasma) is 0.287 ± 0.033 U/ml; in test [1] (60 μg/ml Peptide, B Plasma), 0.282 ± 0.020 U/ml; in test [1] (60 μg/ml Peptide, C Plasma) it was 0.250 ± 0.030 U/ml; in test [1] (60 μg/ml Peptide, Citrate), 0.319 ± 0.016 U/ml; in test [1] (120 μg/ml Peptide, A Plasma), 0.389 ± 0.118 U/ml; in test [1] (120 μg/ml Peptide, B Plasma), 0.374 ± 0.062 U/ml. Further, the “Orgaran Neutralized” value was determined as 0.335 ± 0.012 U/ml in test [1] (120 μg/ml Peptide, C Plasma) and 0.340 ± 0.010 U/ml in test [1] (120 μg/ml Peptide, Citrate).

For the compound “ARKKAAKAARKKAAKAARKKAAKAARKKAAKA [(ARKKAAKA)4]”, the “Orgaran Neutralized” value in test [1] (1 μg/ml Peptide, A Plasma) was determined as 0.026 ± 0.021 U/ml; in test [1] (1 μg/ml Peptide, B Plasma), 0.025 ± 0.009 U/ml; in test [1] (1 μg/ml Peptide, C Plasma), 0.020 ± 0.012 U/ml; in test [1] (1 μg/ml Peptide, Citrate), 0.021 ± 0.022 U/ml; in test [1] (6 μg/ml Peptide, A Plasma), 0.061 ± 0.006 U/ml; in test [1] (6 μg/ml Peptide, B Plasma), 0.057 ± 0.022 U/ml. For the same compound, the “Orgaran Neutralized” value in test [1] (6 μg/ml Peptide, C Plasma) worked out at 0.074 ± 0.056 U/ml; in test [1] (6 μg/ml Peptide, Citrate), 0.172 ± 0.028 U/ml; in test [1] (12 μg/ml Peptide, A Plasma), 0.082 ± 0.012 U/ml; in test [1] (12 μg/ml Peptide, B Plasma) it was 0.110 ± 0.021 U/ml; in test [1] (12 μg/ml Peptide, C Plasma) it was 0.116 ± 0.021 U/ml; in test [1] (12 μg/ml Peptide, Citrate), 0.178 ± 0.021 U/ml. Moreover, the “Orgaran Neutralized” value in test [1] (60 μg/ml Peptide, A Plasma) turned out to be 0.211 ± 0.029 U/ml; in test [1] (60 μg/ml Peptide, B Plasma), 0.192 ± 0.009 U/ml; in test [1] (60 μg/ml Peptide, C Plasma) it was 0.182 ± 0.006 U/ml; in test [1] (60 μg/ml Peptide, Citrate), 0.298 ± 0.044 U/ml; in test [1] (120 μg/ml Peptide, A Plasma), 0.286 ± 0.040 U/ml; in test [1] (120 μg/ml Peptide, B Plasma) it was 0.302 ± 0.012 U/ml. Further, the “Orgaran Neutralized” value in test [1] (120 μg/ml Peptide, C Plasma) is on record as 0.299 ± 0.024 U/ml; in test [1] (120 μg/ml Peptide, Citrate) it was 0.366 ± 0.019 U/ml.

As to “ARKKAAKAARKKAAKAARKKAAKAVLVLVLVL [(ARKKAAKA)3VLVLVLVL]”, the “Orgaran Neutralized” value in test [1] (1 μg/ml Peptide, A Plasma) came to 0.028 ± 0.016 U/ml; in test [1] (1 μg/ml Peptide, B Plasma), 0.026 ± 0.011 U/ml; in test [1] (1 μg/ml Peptide, C Plasma), 0.035 ± 0.010 U/ml; in test [1] (1 μg/ml Peptide, Citrate) it was 0.078 ± 0.031 U/ml; in test [1] (6 μg/ml Peptide, A Plasma), 0.050 ± 0.026 U/ml; in test [1] (6 μg/ml Peptide, B Plasma), 0.049 ± 0.021 U/ml. The “Orgaran Neutralized” value in test [1] (6 μg/ml Peptide, C Plasma) is 0.075 ± 0.005 U/ml; in test [1] (6 μg/ml Peptide, Citrate), 0.114 ± 0.007 U/ml; in test [1] (12 μg/ml Peptide, A Plasma), 0.109 ± 0.019 U/ml; in test [1] (12 μg/ml Peptide, B Plasma), 0.083 ± 0.016 U/ml; in test [1] (12 μg/ml Peptide, C Plasma) it was 0.114 ± 0.010 U/ml; in test [1] (12 μg/ml Peptide, Citrate) it was 0.227 ± 0.017 U/ml. Besides, the “Orgaran Neutralized” value worked out at 0.281 ± 0.036 U/ml in test [1] (60 μg/ml Peptide, A Plasma); 0.258 ± 0.013 U/ml in test [1] (60 μg/ml Peptide, B Plasma); 0.248 ± 0.020 U/ml in test [1] (60 μg/ml Peptide, C Plasma); 0.380 ± 0.021 U/ml in test [1] (60 μg/ml Peptide, Citrate); 0.366 ± 0.010 U/ml in test [1] (120 μg/ml Peptide, A Plasma); 0.320 ± 0.010 U/ml in test [1] (120 μg/ml Peptide, B Plasma). The “Orgaran Neutralized” value worked out at 0.296 ± 0.011 U/ml in test [1] (120 μg/ml Peptide, C Plasma) and 0.345 ± 0.032 U/ml in test [1] (120 μg/ml Peptide, Citrate). For the same compound, the “rank in in vivo neutralization of Lovenox” value in test [2] is “most effective at the lowest dose”.

Turning to Protamine [reference compound], the “Orgaran Neutralized” value in test [1] (1 μg/ml Peptide, A Plasma) is recorded as 0.027 ± 0.004 U/ml; in test [1] (1 μg/ml Peptide, B Plasma), 0.021 ± 0.007 U/ml; in test [1] (1 μg/ml Peptide, C Plasma), 0.017 ± 0.006 U/ml; in test [1] (1 μg/ml Peptide, Citrate), 0.030 ± 0.015 U/ml; in test [1] (6 μg/ml Peptide, A Plasma) it was 0.050 ± 0.025 U/ml; in test [1] (6 μg/ml Peptide, B Plasma), 0.040 ± 0.018 U/ml. Besides, the “Orgaran Neutralized” value in test [1] (6 μg/ml Peptide, C Plasma) came out at 0.034 ± 0.021 U/ml; in test [1] (6 μg/ml Peptide, Citrate), 0.093 ± 0.046 U/ml; in test [1] (12 μg/ml Peptide, A Plasma) it was 0.016 ± 0.013 U/ml; in test [1] (12 μg/ml Peptide, B Plasma), 0.065 ± 0.014 U/ml; in test [1] (12 μg/ml Peptide, C Plasma) it was 0.043 ± 0.018 U/ml; in test [1] (12 μg/ml Peptide, Citrate), 0.308 ± 0.017 U/ml. Further, the “Orgaran Neutralized” value in test [1] (60 μg/ml Peptide, A Plasma) is 0.140 ± 0.021 U/ml; in test [1] (60 μg/ml Peptide, B Plasma), 0.241 ± 0.032 U/ml; in test [1] (60 μg/ml Peptide, C Plasma), 0.234 ± 0.025 U/ml; in test [1] (60 μg/ml Peptide, Citrate), 0.322 ± 0.038 U/ml; in test [1] (120 μg/ml Peptide, A Plasma) it was 0.340 ± 0.021 U/ml; in test [1] (120 μg/ml Peptide, B Plasma) it was 0.364 ± 0.013 U/ml. For the same compound, the “Orgaran Neutralized” value in test [1] (120 μg/ml Peptide, C Plasma) came out at 0.318 ± 0.019 U/ml; in test [1] (120 μg/ml Peptide, Citrate) it was 0.136 ± 0.034 U/ml.

These data come from patent publication US7259140B2, “Heparin-binding peptides and uses thereof” (Thomas Jefferson University, priority 2003, dated 2007).
